# Marks after values point to notes of the source that are not given here.
# Assays:
# [1] = tested on: promastigotes of Leishmania (isolate D.C.L.); experiment: Promastigote viability by MTT, D.C.L. isolate, Warren medium; type: cell-based; conditions: for O.D. (optical density at 595/690 nm wavelength): Warren medium
# Protocol: (§1) Viability and/or cellular proliferative assays of promastigote and amastigote forms are also performed by the MTT (diphenyl tetrazolium 3-[4,5-dimethylthiazol-2il]2,5-bromide) method as described by Moreira, et al. (Moreira, M. E. C., Del Portillo, H. A., Milder, R. V., Balanco, J. M. F. and Barcinski, M. A. Heat shock induction of apoptosis in promastigotes of the unicellular organism Leishmania (Leishmania) amazonensis, J. Cell Physiol 167, 305-313, 1996), modified.
# (§2) After incubation of parasitic forms with the compounds, as described above, for predetermined periods of time for each experiment (24, 48, 72 hours, etc.), an 1.0 mL aliquot of cellular suspension is collected from each culture tube or vial and transferred to microcentrifuge tubes, where they are centrifuged at 14.000 rpm for 3 minutes, the culture medium is aspirated and discharged. To the sedimented cells are add 200 μL of PBS. After that, the volume in PBS of the cellular suspensions is splitted into two wells (duplicates of 100 μL each) of a 96 well culture plate. To each duplicate, […] of MTT (5 mg/mL stock solution, […]) are added. After 1 h or 1 h 30 min, at a temperature of 22° C. (promastigotes) or 34° C. (amastigotes), 100 μL of 10% SDS are added to each well to interrupt the reaction, to lyse the cells and to dissolve the formazan crystals, resulting in an homogeneous blue solution appropriate to the absorbance measure by a spectrophotometer for culture microplates (3550 BIORAD model, Richmond, Calif.), at 595 nm as test wavelength and 690 nm as the reference wavelength.
# (§3) The optical density (O.D.) values correspond to MTT enzymatic reduction by the metabolic active cells. Consequently, the O.D. is directly proportional to the number of viable cells of the cellular suspension. The progressive increase of O.D. indicates cellular proliferation. Results are expressed as arithmetic average of the optical density duplicates.
# This experiment is developed in the Warren medium using an initial inoculum of 2.0×10^6/mL of the medium for the isolates. Cultures were at the day 7^h of passage and at the final exponential phase growth (day 6 of incubation). The results of viability determination for the Leishmania (isolate L.C.L.) promastigotes, incubated in Warren medium and in the presence of HB-1, are shown in the next Table and in FIG. 36. The culture final volume is of 5 mL and the MTT reactions are processed in 1 h and 30 minutes of incubation, beginning with 1.0 mL of culture.
# In the next Table and in FIG. 37 are shown the results of viability determination for the promastigotes of Leishmania (isolate D.C.L.) incubated in Warren medium in the presence of HB-1.
# B16F10 melanoma = B16F10 melanoma tumors implanted in C57BL/6J mice, intraperitoneal treatment; tumor area and volume; type: in vivo; conditions: diluted in Miglyol 810, intraperitoneal 1.15 μg/kg daily, to Day 14; tumor volume and area
# Protocol: After the Day 4 of tumor cells implant (2×10^5 tumoral cells/mL), the animals were splitted in two groups: the test group, treated with HB-1 compound diluted in Miglyol 810® and the control group, which received only the diluent (Miglyol 810®) in the same volume as the test group. The animals were daily treated by intraperitoneal route. Concomitantly, measurements of animal weight and tumor size (two measures—length×width) were performed and tumor aspect registered by photographies.
# After the Day 14, the animals were sacrificed by cervical displacement, tumors were removed, and necropsy performed to remove all internal organs and macroscopic lesions for hystopathologic analysis.
# Tumoral parameters were obtained by calculation of tumor average area (A) and volume (V), through the following formulas A=πR^2 and V=4/3πR^3, where (R=average tumor radius). […]
# After tumoral cell implant, the animals were treated with the HB-2 compound diluted in Miglyol 810® and with (HB2+HB-1) conjugate whereas the control group received the same volume of diluent and by the same administration route (intraperitoneal—100 μl). Daily, the animals received the compounds (100 μl) and the control group received Miglyol 810®, the animals were weighted, and the tumors were measured (length×width) and photographed. […]
# [2] = tested on: promastigote form of Leishmania (L) amazonensis (LV79 isolate); experiment: Promastigote viability by the MTT method in RPMI medium; type: cell-based
# Protocol: as §1, §2, §3
# Blanks of reaction are obtained by incubating of the specific medium employed in each assay, in addition to MTT, and different HB-1 concentrations. The brownish-yellow color of HB-1 exerts certain interference on the colorimetric assay at different magnitudes, according to the medium and to HB-1 concentration. In general the O.D. blank ranged among assays from 0.002 to 0.020.
# In this assay, viability of the promastigote form Leishmania is assessed by the MTT method, when incubated in RPMI medium, in the presence of HB-1 or of its respective controls in DMSO. It is also possible to verify if the effect of HB-1 could be detected in the stationary phase of the growth curve.
# For the incubations, promastigotes of the LV79 isolate, in 1st passage and in Day 7 of culture, are employed, from a 1.0×10^6/mL as initial inoculum. The final reaction volume is of 3.0 mL. The results of the viability determination for the promastigote forms of Leishmania (L) amazonensis treated with HB-1 in RPMI medium are shown in the next Table and in FIG. 35.
smiles,measurement,setting,value
"COc1cc(C=CC(=O)C=Cc2ccc(O)c(OC)c2)ccc1O [HB-1, 1,5-Bis-(4-hydroxy-3-methoxy-phenyl)-penta-1,4-dien-3-one]",O.D. (optical density at 595/690 nm wavelength),"[1]; HB-1 5 μg/mL, 24 hours",0.299
same,O.D. (optical density at 595/690 nm wavelength),"[1]; HB-1 5 μg/mL, 48 hours",0.682
same,O.D. (optical density at 595/690 nm wavelength),"[1]; HB-1 5 μg/mL, 72 hours",0.785
same,O.D. (optical density at 595/690 nm wavelength),"[1]; HB-1 10 μg/mL, 24 hours",0.083
same,O.D. (optical density at 595/690 nm wavelength),"[1]; HB-1 10 μg/mL, 48 hours",0.059
same,O.D. (optical density at 595/690 nm wavelength),"[1]; HB-1 10 μg/mL, 72 hours",0.017
same,O.D. (optical density at 595/690 nm wavelength),"[1]; HB-1 10 μg/mL, 96 hours",0.016
same,O.D. (optical density at 595/690 nm wavelength),"[1]; HB-1 20 μg/mL, 24 hours",0.025
same,O.D. (optical density at 595/690 nm wavelength),"[1]; HB-1 20 μg/mL, 48 hours",0.012
same,O.D. (optical density at 595/690 nm wavelength),"[1]; HB-1 20 μg/mL, 72 hours",0.016
same,O.D. (optical density at 595/690 nm wavelength),"[1]; HB-1 20 μg/mL, 96 hours",0.013
same,effect in words,[1]; HB-1 from 10 μg/mL,leishmanicide effect
same,percentage of inhibitory treatment for B16F10 melanoma,B16F10 melanoma,higher than 98%
same,Optical Density 595/690 nm (average value from duplicates),"[2]; HB-1 3.12 μg/mL, 24 hours",0.062
same,Optical Density 595/690 nm (average value from duplicates),"[2]; HB-1 3.12 μg/mL, 48 hours",0.085
same,Optical Density 595/690 nm (average value from duplicates),"[2]; HB-1 3.12 μg/mL, 72 hours",0.104*
same,Optical Density 595/690 nm (average value from duplicates),"[2]; HB-1 3.12 μg/mL, 144 hours",0.021
same,effect in words,[2]; HB-1 6.25 μg/mL,leishmaniostatic effect
same,Optical Density 595/690 nm (average value from duplicates),"[2]; HB-1 6.25 μg/mL, 24 hours",0.039
same,Optical Density 595/690 nm (average value from duplicates),"[2]; HB-1 6.25 μg/mL, 48 hours",0.033
same,Optical Density 595/690 nm (average value from duplicates),"[2]; HB-1 6.25 μg/mL, 72 hours",0.044
same,Optical Density 595/690 nm (average value from duplicates),"[2]; HB-1 6.25 μg/mL, 144 hours",0.031
same,Optical Density 595/690 nm (average value from duplicates),"[2]; HB-1 12.5 μg/mL, 24 hours",0.010
same,Optical Density 595/690 nm (average value from duplicates),"[2]; HB-1 12.5 μg/mL, 48 hours",0.004
same,Optical Density 595/690 nm (average value from duplicates),"[2]; HB-1 12.5 μg/mL, 72 hours",0.003
same,Optical Density 595/690 nm (average value from duplicates),"[2]; HB-1 12.5 μg/mL, 144 hours",0.005
same,Optical Density 595/690 nm (average value from duplicates),"[2]; HB-1 25 μg/mL, 24 hours",0.004
same,Optical Density 595/690 nm (average value from duplicates),"[2]; HB-1 25 μg/mL, 48 hours",0.005
same,Optical Density 595/690 nm (average value from duplicates),"[2]; HB-1 25 μg/mL, 72 hours",0.002
same,Optical Density 595/690 nm (average value from duplicates),"[2]; HB-1 25 μg/mL, 144 hours",0.005
same,Optical Density 595/690 nm (average value from duplicates),"[2]; HB-1 50 μg/mL, 24 hours",0.008
same,Optical Density 595/690 nm (average value from duplicates),"[2]; HB-1 50 μg/mL, 48 hours",0.004
same,Optical Density 595/690 nm (average value from duplicates),"[2]; HB-1 50 μg/mL, 72 hours",0.005
same,Optical Density 595/690 nm (average value from duplicates),"[2]; HB-1 50 μg/mL, 144 hours",0.005
same,Optical Density 595/690 nm (average value from duplicates),"[2]; HB-1 100 μg/mL, 24 hours",0.016
same,Optical Density 595/690 nm (average value from duplicates),"[2]; HB-1 100 μg/mL, 48 hours",0.012
same,Optical Density 595/690 nm (average value from duplicates),"[2]; HB-1 100 μg/mL, 72 hours",0.011
same,Optical Density 595/690 nm (average value from duplicates),"[2]; HB-1 100 μg/mL, 144 hours",0.011
same,effect in words,[2]; HB-1 above 12.5 μg/mL,clear leishmanicidal effect
same,cell viability in words,"[2]; HB-1 between 6.25 μg/mL and 100 μg/mL, since first 24 hours",irreversibly compromise cell viability
